The text below walks through data of patent US12685726B2, “Sulfoximines as inhibitors of NaV1.8” (Gruenenthal GmbH, priority 2022, dated 2026).

SMILES strings stand for the structures.

The IC50 is the concentration needed to halve the response being measured.

This experiment addresses T1, human NaV 1.8 (Homo sapiens, UniProt Q9Y5Y9).
T1 construct: expressed in transfected cells; host or cells: HEK (recombinant cell line)
Put plainly: Automated whole-cell patch clamp (Qube384) voltage-clamp recordings of sodium currents in HEK-NaV1.8 cell line. Format: cell-based. The conditions noted are these: read-out: Potency category (human NaV 1.8 IC50). A digest of the protocol: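 HEK cells expressing NaV1.8 with b3, whole-cell automated voltage clamp at room temperature or 19° C.; CsF-based internal, pH 7.4 external. State-dependent (−120 mV, V1/2 4 s, −10 mV test pulses) and 10/20 Hz 40-pulse protocols; ~12 min compound, vehicle-corrected, IC50 by 4-parameter logistic fit.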
On the technique in general: In patch-clamp work, channel activity is measured electrically.

T1 sequence (Q9Y5Y9 whole entry): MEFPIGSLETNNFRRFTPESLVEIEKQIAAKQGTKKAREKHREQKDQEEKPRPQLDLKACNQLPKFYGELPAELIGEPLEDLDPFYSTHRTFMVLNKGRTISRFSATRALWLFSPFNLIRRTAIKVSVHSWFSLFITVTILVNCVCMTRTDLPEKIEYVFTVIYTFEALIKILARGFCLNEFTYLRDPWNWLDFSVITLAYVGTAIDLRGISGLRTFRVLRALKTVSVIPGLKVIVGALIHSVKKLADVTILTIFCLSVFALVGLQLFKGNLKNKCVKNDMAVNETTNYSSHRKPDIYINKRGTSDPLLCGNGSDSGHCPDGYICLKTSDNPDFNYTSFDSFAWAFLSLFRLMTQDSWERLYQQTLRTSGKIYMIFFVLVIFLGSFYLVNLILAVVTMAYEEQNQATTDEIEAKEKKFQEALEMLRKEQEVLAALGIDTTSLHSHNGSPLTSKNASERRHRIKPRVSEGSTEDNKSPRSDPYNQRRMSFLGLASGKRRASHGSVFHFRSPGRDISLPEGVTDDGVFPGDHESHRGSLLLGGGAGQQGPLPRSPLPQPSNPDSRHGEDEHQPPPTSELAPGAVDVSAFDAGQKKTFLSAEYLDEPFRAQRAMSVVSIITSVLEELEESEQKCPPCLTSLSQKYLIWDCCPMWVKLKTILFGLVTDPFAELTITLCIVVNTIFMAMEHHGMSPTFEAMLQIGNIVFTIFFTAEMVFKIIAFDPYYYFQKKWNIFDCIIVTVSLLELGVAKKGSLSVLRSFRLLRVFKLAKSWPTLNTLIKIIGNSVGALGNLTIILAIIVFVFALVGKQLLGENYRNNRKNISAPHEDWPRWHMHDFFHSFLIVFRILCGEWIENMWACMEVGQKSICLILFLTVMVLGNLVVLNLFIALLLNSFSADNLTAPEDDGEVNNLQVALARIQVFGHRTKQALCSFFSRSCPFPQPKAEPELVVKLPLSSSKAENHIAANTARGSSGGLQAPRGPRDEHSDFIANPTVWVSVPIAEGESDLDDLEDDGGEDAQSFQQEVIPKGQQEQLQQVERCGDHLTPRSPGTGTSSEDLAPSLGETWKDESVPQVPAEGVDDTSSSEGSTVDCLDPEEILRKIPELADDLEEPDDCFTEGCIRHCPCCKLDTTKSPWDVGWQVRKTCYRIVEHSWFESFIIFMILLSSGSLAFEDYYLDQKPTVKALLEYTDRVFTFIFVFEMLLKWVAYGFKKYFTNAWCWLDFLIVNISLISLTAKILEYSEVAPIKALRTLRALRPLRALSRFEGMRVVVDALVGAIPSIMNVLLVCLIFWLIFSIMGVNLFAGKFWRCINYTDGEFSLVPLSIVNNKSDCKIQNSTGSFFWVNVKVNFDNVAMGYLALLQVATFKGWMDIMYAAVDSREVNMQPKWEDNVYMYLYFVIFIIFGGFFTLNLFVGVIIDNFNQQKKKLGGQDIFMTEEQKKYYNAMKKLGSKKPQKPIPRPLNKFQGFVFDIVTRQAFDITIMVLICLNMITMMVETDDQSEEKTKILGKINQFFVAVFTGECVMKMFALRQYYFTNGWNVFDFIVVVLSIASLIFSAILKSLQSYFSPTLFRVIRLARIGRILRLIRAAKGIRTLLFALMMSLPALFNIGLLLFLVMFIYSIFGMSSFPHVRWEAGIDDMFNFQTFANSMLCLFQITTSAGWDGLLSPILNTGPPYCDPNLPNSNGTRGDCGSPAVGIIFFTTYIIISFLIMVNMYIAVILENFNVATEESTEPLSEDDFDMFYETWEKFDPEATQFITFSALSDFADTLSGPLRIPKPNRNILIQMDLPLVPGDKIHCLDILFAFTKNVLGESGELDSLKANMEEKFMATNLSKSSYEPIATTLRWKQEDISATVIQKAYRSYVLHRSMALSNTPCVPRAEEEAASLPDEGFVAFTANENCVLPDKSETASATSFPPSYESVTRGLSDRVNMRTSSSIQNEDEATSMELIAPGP

In the case of `C[C@@]1(Cn2nc(C3CC3)c(C(F)(F)F)c2C(=O)Nc2ccnc([S@](C)(=N)=O)c2)CC(F)(F)C12CC2` (single isomer, unassigned) [Example 92c, 3-cyclopropyl-1-((6,6-difluoro-4-methylspiro[2.3]hexan-4-yl)methyl)-N-(2-(S-methylsulfonimidoyl)pyridin-4-yl)-4-(trifluoromethyl)-1H-pyrazole-5-carboxamide], the IC50 is no more than 100 nM.

For the compound `C[C@@]1(Cn2nc(C3CC3)c(C(F)(F)F)c2C(=O)Nc2ccnc([S@@](C)(=N)=O)c2)CC(F)(F)C12CC2` (single isomer, unassigned) [Example 92d, 3-cyclopropyl-1-((6,6-difluoro-4-methylspiro[2.3]hexan-4-yl)methyl)-N-(2-(S-methylsulfonimidoyl)pyridin-4-yl)-4-(trifluoromethyl)-1H-pyrazole-5-carboxamide], the IC50 is no more than 100 nM.

With `CS(=N)(=O)c1cc(NC(=O)c2c(C(F)(F)F)c(C3CC3)nn2CC23CC2CC(F)(F)C3)ccn1` (single isomer, unassigned) [Example 95a, 3-Cyclopropyl-1-((3,3-difluorobicyclo[3.1.0]hexan-1-yl)methyl)-N-(2-(S-methylsulfonimidoyl)pyridin-4-yl)-4-(trifluoromethyl)-1H-pyrazole-5-carboxamide], the IC50 is no more than 100 nM.

Regarding `CS(=N)(=O)c1cc(NC(=O)c2c(C(F)(F)F)c(C3CC3)nn2CC23CC2CC(F)(F)C3)ccn1` (single isomer, unassigned) [Example 95b, 3-Cyclopropyl-1-((3,3-difluorobicyclo[3.1.0]hexan-1-yl)methyl)-N-(2-(S-methylsulfonimidoyl)pyridin-4-yl)-4-(trifluoromethyl)-1H-pyrazole-5-carboxamide], the IC50 is no more than 100 nM.

Turning to `CS(=N)(=O)c1cc(NC(=O)c2c(C(F)(F)F)c(C3CC3)nn2CC23CC2CC(F)(F)C3)ccn1` (single isomer, unassigned) [Example 95c, 3-Cyclopropyl-1-((3,3-difluorobicyclo[3.1.0]hexan-1-yl)methyl)-N-(2-(S-methylsulfonimidoyl)pyridin-4-yl)-4-(trifluoromethyl)-1H-pyrazole-5-carboxamide], the half-inhibitory concentration (IC50) was no more than 100 nM.

With `CS(=N)(=O)c1cc(NC(=O)c2c(C(F)(F)F)c(C3CC3)nn2CC2(C(F)(F)F)CCCC2)ccn1` (single isomer, unassigned) [Example 98a, 3-cyclopropyl-N-(2-(S-methylsulfonimidoyl)pyridin-4-yl)-4-(trifluoromethyl)-1-((1-(trifluoromethyl)cyclopentyl)methyl)-1H-pyrazole-5-carboxamide], the half-maximal inhibitory concentration (IC50) was no more than 100 nM.

For `CS(=N)(=O)c1cc(NC(=O)c2c(C(F)(F)F)c(C3CC3)nn2CC2(C(F)(F)F)CCCC2)ccn1` (single isomer, unassigned) [Example 98b, 3-cyclopropyl-N-(2-(S-methylsulfonimidoyl)pyridin-4-yl)-4-(trifluoromethyl)-1-((1-(trifluoromethyl)cyclopentyl)methyl)-1H-pyrazole-5-carboxamide], the concentration for half-maximal inhibition (IC50) is no more than 100 nM.

Regarding `CS(=N)(=O)c1cc(NC(=O)c2c(C(F)(F)F)c(C3CC3)nn2CC23CC(CC2(F)F)C3)ccn1` (single isomer, unassigned) [Example 103a, 3-cyclopropyl-1-((2,2-difluorobicyclo[2.1.1]hexan-1-yl)methyl)-N-(2-(S-methylsulfonimidoyl)pyridin-4-yl)-4-(trifluoromethyl)-1H-pyrazole-5-carboxamide], the IC50 was no more than 100 nM.

Consider `CS(=N)(=O)c1cc(NC(=O)c2c(C(F)(F)F)c(C3CC3)nn2CC23CC(CC2(F)F)C3)ccn1` (single isomer, unassigned) [Example 103b, 3-cyclopropyl-1-((2,2-difluorobicyclo[2.1.1]hexan-1-yl)methyl)-N-(2-(S-methylsulfonimidoyl)pyridin-4-yl)-4-(trifluoromethyl)-1H-pyrazole-5-carboxamide], for which the IC50 was no more than 100 nM.

Take `CS(=N)(=O)c1cc(NC(=O)c2c(C(F)(F)F)c(C3CC3)nn2CC23CCC(F)(CC2)C3)ccn1` (single isomer, unassigned) [Example 106a, 3-cyclopropyl-1-((4-fluorobicyclo[2.2.1]heptan-1-yl)methyl)-N-(2-(S-methylsulfonimidoyl)pyridin-4-yl)-4-(trifluoromethyl)-1H-pyrazole-5-carboxamide]: the IC50 was no more than 100 nM.

Regarding `CS(=N)(=O)c1cc(NC(=O)c2c(C(F)(F)F)c(C3CC3)nn2CC23CCC(F)(CC2)C3)ccn1` (single isomer, unassigned) [Example 106b, 3-cyclopropyl-1-((4-fluorobicyclo[2.2.1]heptan-1-yl)methyl)-N-(2-(S-methylsulfonimidoyl)pyridin-4-yl)-4-(trifluoromethyl)-1H-pyrazole-5-carboxamide], the 50% inhibitory concentration (IC50) was no more than 100 nM.

For `CC1(Cn2nc(C3(F)CC3)c(C(F)(F)F)c2C(=O)Nc2cccc(S(C)(=N)=O)c2)CC(F)(F)C1` (single isomer, unassigned) [Example 109a, 1-((3,3-Difluoro-1-methylcyclobutyl)methyl)-3-(1-fluorocyclopropyl)-N-(3-(S-methylsulfonimidoyl)phenyl)-4-(trifluoromethyl)-1H-pyrazole-5-carboxamide], the concentration for half-maximal inhibition (IC50) is no more than 100 nM.

Take `CC1(Cn2nc(C3(F)CC3)c(C(F)(F)F)c2C(=O)Nc2cccc(S(C)(=N)=O)c2)CC(F)(F)C1` (single isomer, unassigned) [Example 109b, 1-((3,3-Difluoro-1-methylcyclobutyl)methyl)-3-(1-fluorocyclopropyl)-N-(3-(S-methylsulfonimidoyl)phenyl)-4-(trifluoromethyl)-1H-pyrazole-5-carboxamide]: the 50% inhibitory concentration (IC50) is no more than 100 nM.

Turning to `CC1(Cn2nc(C34CC(F)(C3)C4)c(C(F)(F)F)c2C(=O)Nc2ccnc(S(C)(=N)=O)c2)CC(F)(F)C1` (single isomer, unassigned) [Example 110a, 1-((3,3-Difluoro-1-methylcyclobutyl)methyl)-3-(3-fluorobicyclo[1.1.1]pentan-1-yl)-N-(2-(S-methylsulfonimidoyl)pyridin-4-yl)-4-(trifluoromethyl)-1H-pyrazole-5-carboxamide], the half-maximal inhibitory concentration (IC50) is no more than 100 nM.

Regarding `CC1(Cn2nc(C34CC(F)(C3)C4)c(C(F)(F)F)c2C(=O)Nc2ccnc(S(C)(=N)=O)c2)CC(F)(F)C1` (single isomer, unassigned) [Example 110b, 1-((3,3-Difluoro-1-methylcyclobutyl)methyl)-3-(3-fluorobicyclo[1.1.1]pentan-1-yl)-N-(2-(S-methylsulfonimidoyl)pyridin-4-yl)-4-(trifluoromethyl)-1H-pyrazole-5-carboxamide], the IC50 is no more than 100 nM.

As to `CC1(Cn2nc(C34CC(F)(C3)C4)c(C(F)(F)F)c2C(=O)Nc2cccc(S(C)(=N)=O)c2)CC(F)(F)C1` (single isomer, unassigned) [Example 111a, 1-((3,3-difluoro-1-methylcyclobutyl)methyl)-3-(3-fluorobicyclo[1.1.1]pentan-1-yl)-N-(3-(S-methylsulfonimidoyl)phenyl)-4-(trifluoromethyl)-1H-pyrazole-5-carboxamide], the IC50 was no more than 100 nM.

Regarding `CC1(Cn2nc(C34CC(F)(C3)C4)c(C(F)(F)F)c2C(=O)Nc2cccc(S(C)(=N)=O)c2)CC(F)(F)C1` (single isomer, unassigned) [Example 111b, 1-((3,3-difluoro-1-methylcyclobutyl)methyl)-3-(3-fluorobicyclo[1.1.1]pentan-1-yl)-N-(3-(S-methylsulfonimidoyl)phenyl)-4-(trifluoromethyl)-1H-pyrazole-5-carboxamide], the IC50 was no more than 100 nM.

Take `CC1(Cn2nc(C34CC(F)(C3)C4)c(C(F)F)c2C(=O)Nc2cccc(S(C)(=N)=O)c2)CC(F)(F)C1` (single isomer, unassigned) [Example 113a, 1-((3,3-Difluoro-1-methylcyclobutyl)methyl)-4-(difluoromethyl)-3-(3-fluorobicyclo[1.1.1]pentan-1-yl)-N-(3-(S-methylsulfonimidoyl)phenyl)-1H-pyrazole-5-carboxamide]: the 50% inhibitory concentration (IC50) is no more than 100 nM.

Consider `CC1(Cn2nc(C34CC(F)(C3)C4)c(C(F)F)c2C(=O)Nc2cccc(S(C)(=N)=O)c2)CC(F)(F)C1` (single isomer, unassigned) [Example 113b, 1-((3,3-Difluoro-1-methylcyclobutyl)methyl)-4-(difluoromethyl)-3-(3-fluorobicyclo[1.1.1]pentan-1-yl)-N-(3-(S-methylsulfonimidoyl)phenyl)-1H-pyrazole-5-carboxamide], for which the IC50 was no more than 100 nM.

For `CC1(Cn2nc(C34CC(C3)C4(F)F)c(C(F)(F)F)c2C(=O)Nc2ccnc(S(C)(=N)=O)c2)CC(F)(F)C1` (single isomer, unassigned) [Example 114, 1-((3,3-Difluoro-1-methylcyclobutyl)methyl)-3-(2,2-difluorobicyclo[1.1.1]pentan-1-yl)-N-(2-(S-methylsulfonimidoyl)pyridin-4-yl)-4-(trifluoromethyl)-1H-pyrazole-5-carboxamide], the 50% inhibitory concentration (IC50) is no more than 100 nM.

As for `CC1(Cn2nc(C3(F)CC3)c(C(F)(F)F)c2C(=O)Nc2ccc(F)c(S(C)(=N)=O)c2)CC(F)(F)C1` (single isomer, unassigned) [Example 126a, 1-((3,3-Difluoro-1-methylcyclobutyl)methyl)-N-(4-fluoro-3-(S-methylsulfonimidoyl)phenyl)-3-(1-fluorocyclopropyl)-4-(trifluoromethyl)-1H-pyrazole-5-carboxamide], the IC50 was no more than 100 nM.

Consider `CC1(Cn2nc(C3(F)CC3)c(C(F)(F)F)c2C(=O)Nc2ccc(F)c(S(C)(=N)=O)c2)CC(F)(F)C1` (single isomer, unassigned) [Example 126b, 1-((3,3-Difluoro-1-methylcyclobutyl)methyl)-N-(4-fluoro-3-(S-methylsulfonimidoyl)phenyl)-3-(1-fluorocyclopropyl)-4-(trifluoromethyl)-1H-pyrazole-5-carboxamide], for which the half-maximal inhibitory concentration (IC50) was no more than 100 nM.
